{"source": "patent US7208303B2", "about": "“Bacterial nitric oxide synthases and uses thereof” (Cornell Research Foundation, Inc., priority 2003, dated 2007)", "key": {"[1]": {"system": "S. turgidiscabies", "assay": "Bacterial growth of S. turgidiscabies cultures (dry weight of mycelia)", "type": "cell-based, Streptomyces turgidiscabies", "details": "FIG. 4C", "protocol": "(§1) Sonicated cell lysates from 3 mL cultures were run on 12% SDS-PAGE gels after 2.5 hr induction with 0.1 mM IPTG. […] The NOS intermediate N^ω-hydroxy-L-arginine (2 mM) and hydrogen peroxide (4 mM) were reacted with 20 μL of cell lysates shown in FIG. 4A and assayed for nitrite with the Griess reagents after 15 min.\n(§2) Streptomyces turgidiscabies cultures were grown in oat bran broth or oat meal broth (Healy et al., Mol. Micro. 38:794–804 (2000); and Goyer et al., Phytopathology 88:442–445 (1998), which are hereby incorporated by reference in their entirety) inoculated with spores. After shaking at 150 rpm and 25° C. for 5–9 days the cultures were filtered and dry weight of the mycelia was measured. Thaxtomin was extracted from the filtrate with ethyl acetate, dried, redissolved in methanol, and quantified using HPLC (column: 5 μm C18; 250×4.6 mm; mobile phase: MeCN: H20:TFA (40:60:0.1)). In experiments investigating the suppression of thaxtomin production in the presence of L-NAME, this NOS inhibitor was dissolved in water, filter-sterilized, and added at the time of inoculation."}, "[2]": {"system": "thaxtomin A production by S. turgidiscabies", "assay": "Thaxtomin A production by S. turgidiscabies cultures in presence of NOS inhibitors (HPLC)", "type": "cell-based, Streptomyces turgidiscabies", "details": "FIG. 4C, n=6", "protocol": "as §1, §2\nFor stNOS to be responsible for thaxtomin nitration, stNOS should have NO synthase activity. Further, this activity and thaxtomin production should be arginine dependent. As predicted, overexpressed stNOS in E. coli produced nitrite from N-hydroxy-L-arginine in a standard NOS assay (FIGS. 4A–4B). N-hydroxy-L-arginine is an intermediate unique to the NOS catalytic reaction and nitrite represents the end product of NO reacting in oxygenated solution. NO synthase activity of the recombinant stNOS was inhibited by the selective NOS inhibitor nitro-L-arginine (FIG. 4B); nitro-L-arginine is the active form of Nitro-L-arginine methyl ester (NAME). NOS inhibitors were also evaluated for their effect on thaxtomin A production by S. turgidiscabies. […]"}}, "data": [{"smiles": "O=[N+]([O-])c1cccc2cn[nH]c12", "note": "[7-IN, 7-nitroindazole]", "values": [{"measurement": "bacterial growth", "setting": "[1]; 1.2 μM", "result": "without affecting bacterial growth"}, {"measurement": "toxin production", "setting": "[2]; 1.2 μM", "result": "inhibit toxin product"}]}, {"smiles": "N=C(N)NN", "note": "[AG, aminoguanidine]", "values": [{"measurement": "bacterial growth", "setting": "[1]; 270 μM", "result": "without affecting bacterial growth"}, {"measurement": "toxin production", "setting": "[2]; 270 μM", "result": "inhibit toxin product"}]}, {"smiles": "CNC(=N)NCCC[C@H](N)C(=O)O", "note": "[NMMA, NG-monomethyl-L-arginine]", "values": [{"measurement": "bacterial growth", "setting": "[1]; 510 μM", "result": "without affecting bacterial growth"}, {"measurement": "toxin production", "setting": "[2]; 510 μM", "result": "inhibit toxin product"}]}]}
